Measured values published in ChEMBL document CHEMBL1144094, “Phenylethanoid glycosides from Globularia trichosantha” (J Nat Prod, 1999).
The source made the active and inactive calls. No cut-off for these calls is given here.

Tested on: Radical scavenging activity
Test: Antioxidant activity assessed as DPPH free radical scavenging activity by TLC autographic assay
Assay type: functional

| Compound | Activity |
| --- | --- |
| C[C@@H]1O[C@@H](O[C@@H]2[C@@H](O)[C@H](OCCc3ccc(O)c(O)c3)O[C@H](CO)[C@H]2OC(=O)/C=C/c2ccc(O)c(O)c2)[C@H](O)[C@H](O)[C@H]1O[C@@H]1OC[C@@H](O)[C@H](O)[C@H]1O | Active |
| C[C@@H]1O[C@@H](O[C@@H]2[C@@H](O)[C@H](OCCc3ccc(O)c(O)c3)O[C@H](CO)[C@H]2OC(=O)/C=C/c2ccc(O)c(O)c2)[C@H](O)[C@H](O)[C@H]1O | Active |
| C[C@@H]1O[C@@H](O[C@@H]2[C@@H](O)[C@H](OCCc3ccc(O)c(O)c3)O[C@H](CO[C@@H]3OC[C@@H](O)[C@H](O)[C@H]3O)[C@H]2OC(=O)/C=C/c2ccc(O)c(O)c2)[C@H](O)[C@H](O)[C@H]1O[C@@H]1OC[C@@H](O)[C@H](O)[C@H]1O | Active |
| C[C@@H]1O[C@@H](O[C@@H]2[C@H]3O[C@@H](c4ccc(O)c(O)c4)CO[C@@H]3O[C@H](CO)[C@H]2OC(=O)/C=C/c2ccc(O)c(O)c2)[C@H](O)[C@H](O)[C@H]1O | Active |
| C[C@@H]1O[C@@H](O[C@@H]2[C@@H](O)[C@H](OCCc3ccc(O)c(O)c3)O[C@H](CO)[C@H]2OC(=O)/C=C/c2ccc(O)c(O)c2)[C@H](O)[C@H](O)[C@H]1O[C@@H]1O[C@H](CO)[C@@H](O)[C@H](O)[C@H]1O | Active |
